Measured values as given in ChEMBL document CHEMBL2074439, “Localization and genomic organization of a new hepatocellular organic anion transporting polypeptide” (J Biol Chem, 2000).

What was measured:
OATP8 (OATP1B3, SLCO1B3) = biological target: T1, OATP8 (OATP1B3, SLCO1B3) (Homo sapiens, UniProt Q9NPD5); test: (§1) TP_TRANSPORTER: uptake in OATP8-expressing HEK293 cells; format: functional, cell-based; settings: HEK293 cells that express OATP8 (OATP1B3)
T1 sequence (Q9NPD5 whole entry): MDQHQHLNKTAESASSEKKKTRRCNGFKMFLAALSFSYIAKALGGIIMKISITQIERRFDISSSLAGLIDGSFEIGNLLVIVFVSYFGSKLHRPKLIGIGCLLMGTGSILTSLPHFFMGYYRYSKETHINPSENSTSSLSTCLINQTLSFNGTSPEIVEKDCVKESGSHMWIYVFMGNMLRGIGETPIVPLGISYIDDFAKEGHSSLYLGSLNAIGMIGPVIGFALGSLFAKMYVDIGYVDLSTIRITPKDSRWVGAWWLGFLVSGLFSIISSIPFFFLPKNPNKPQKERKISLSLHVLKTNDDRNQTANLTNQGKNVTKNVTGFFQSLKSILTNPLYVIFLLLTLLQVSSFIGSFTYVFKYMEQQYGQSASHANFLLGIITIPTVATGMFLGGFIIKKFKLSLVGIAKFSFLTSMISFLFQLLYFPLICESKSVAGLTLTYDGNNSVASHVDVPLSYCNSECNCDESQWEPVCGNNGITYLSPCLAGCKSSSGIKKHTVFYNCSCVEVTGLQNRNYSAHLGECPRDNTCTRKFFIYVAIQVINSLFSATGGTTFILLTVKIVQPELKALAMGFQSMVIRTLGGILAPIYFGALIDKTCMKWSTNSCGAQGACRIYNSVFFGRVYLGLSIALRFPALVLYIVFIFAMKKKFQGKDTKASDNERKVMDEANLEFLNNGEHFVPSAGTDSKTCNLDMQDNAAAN

[1] = biological target: T2, Solute carrier organic anion transporter family member 1B3 (Homo sapiens, UniProt Q9NPD5); test: as §1; format: functional, cell-based; settings: hek293
T2 sequence (Q9NPD5 whole entry): T1 sequence (Q9NPD5 whole entry)

Row | Activity [1] | Structure (SMILES) | Km (OATP8 (OATP1B3, SLCO1B3)) [µM] | Km [1] [µM]
1 |  | O=C1OC(c2ccc(O)c(S(=O)(=O)O)c2)(c2ccc(O)c(S(=O)(=O)O)c2)c2c(Br)c(Br)c(Br)c(Br)c21 [SULFOBROMOPHTHALEIN SODIUM] | 3.3 | 3.3
2 | substrate [+] | CCCCC/C=C\C\C=C/C=C/C=C/[C@@H](SC[C@@H](NC(=O)CC[C@H](N)C(=O)O)C(=O)NCC(=O)O)[C@@H](O)CCCC(=O)O [LEUKOTRIEN C4] |  | 
3 |  | C[C@]12CC[C@@H]3c4ccc(O)cc4CC[C@H]3[C@@H]1CC[C@@H]2O[C@@H]1O[C@H](C(=O)O)[C@@H](O)[C@H](O)[C@H]1O [ESTRADIOL 17B GLUCURONIDE] | 5.4 | 5.4
